Experiment [1] relates to imDAPs. Nature of the experiment: qRT-PCR analysis of mDA maturation associated markers. In kind it is cell-based, human. Particulars: 1 μM IWR1 vs without IWR1; day 7. On the procedure: 1. For qRT-PCR analysis of mRNA gene expression, RNA should be harvested from at least 2×10^6 cells. 2. Harvest cells, add 350 μl of buffer RLT+1% (vol/vol) β-mercaptoethanol to the well, transfer the lysate to a 1.5 ml tube, and put it immediately on ice. 3. Perform RNA extraction using the Tiangen Kit (DP430), and follow the manufacturer's protocol 'Purification of total RNA from animal and human cells'. 4. When the RNA extraction was completed, determine the RNA concentration using a Nanodrop instrument. 5. Perform the first-strand cDNA synthesis reaction with lug of RNA using the HiScriptTM II Q RT SuperMIX for qPCR (+gDNA wiper) Kit (Vazyme, #R223-01) for RT-qPCR. Follow the manufacturer's 'First-Strand cDNA Synthesis' protocol. This reaction would yield a 20μl product. 6. Dilute the 10 μl cDNA product in 80 μl of nuclease-free water. 7. […] Analyze the samples by running a quantitative PCR on the LightCycler 480 instrument using a 40× cycle two-step protocol with a 60° C., 60 sec annealing/elongation step and a 95° C., 30 sec denaturation step. […] Cells were collected and counted by Vi-cell cytometer. The cells were analyzed by RT-qPCR for EN1, LMX1A, FOXA2, NURR1, SOX6 and TH gene expression. […]

The subject of experiment [2] is imDAPs. The experiment in a line: imDAP maturation, cell morphology and adhesion (bright-field). As to conditions: 1 μM IWR1 for at least 3 days vs without; VTN-coated; 1% HhPLT medium. In kind it is cell-based, human. On the procedure: were produced according to the method described in CN201910169525.0, and expanded as described in Example 10. The expanded […] were seeded on VTN-coated (1 μg/cm^2) plates at a density of 5×10^5 cells/cm^2 (Day 0), and cultured in the maturation medium ([…]) supplemented with 1 μM IWR1. MM-P used in Example 11 contained the following components: NeurobasalTM medium, 1% (v/v) Glutamax, 0.5 mM Db-cAMP sodium salt, 200 μM ascorbic acid, 20 ng/ml BDNF, 20 ng/ml GDNF, 1 ng/ml TGF-β3, 10 μM DAPT, hPLT (0.5%, 1%, 2%). MM-H used in Example 11 contained the following components: NeurobasalTM medium, 1% (v/v) Glutamax, 0.5 mM Db-cAMP sodium salt, 200 μM ascorbic acid, 20 ng/ml BDNF, 20 ng/ml GDNF, 1 ng/ml TGF-β3, […], HhPLT (0.5%, 1%, 2%). MM-B used in Example 11 contained the following components: Neurobasal, 1% (v/v) Glutamax, 0.5 mM Db-cAMP sodium salt, 200 μM ascorbic acid, 20 ng/ml BDNF, 20 ng/ml GDNF, 1 ng/ml TGF-β 3, 10 μM DAPT, 2% (v/v) B27 (50×) (as control). The above HhPLT was produced from hPLT as follows. The hPLT was centrifuged at 3000 g for 30 min at 4° C. to obtain the supernatant, which was heated to 56° C. for 30 min. […] Cells were collected and counted by Vi-cell cytometer. The cells were analyzed by RT-qPCR for EN1, LMX1A, FOXA2, NURR1, SOX6 and TH gene expression. […]

Take `O=C(Nc1cccc2cccnc12)c1ccc(N2C(=O)[C@@H]3[C@H](C2=O)[C@@H]2C=C[C@H]3C2)cc1` [IWR1]: the “expression of NURR1, SOX6 and TH, qRT-PCR (FIG. 7E)” value in the experiment on imDAPs [1] is “increased”. In the experiment with imDAPs [2], the “cell morphology on day 7 during maturation (FIG. 7D)” value is on record as “showed more obvious neural fibers”.

(Values after patent US20240327787A1, “CULTURE MEDIUM, COATING MATRIX AND METHOD FOR EXPANDING MIDBRAIN DOPAMINERGIC PROGENITOR CELLS” (NUWACELL BIOTECHNOLOGIES CO., LTD., priority 2022, published 2024).)
